Source: article PMC10253522 (2023)
One block for each compound: values may come before it.

Test system: aptamer beacon probe (ABP) (DNA, aptamer) ATTCTCTCACCTGGGGGAGTATTGCGGAGGAAGGTAT
Assay: FAM-Dabcyl fluorescence quenching and fluorescence melting
Conditions: 100 mM NaCl, 5 mM MgCl2, 20 mM Tris-HCl pH 7.4, 23 and 40 °C

binding (625 µM CTP, no complex in melting, residual quenching): weak
SMILES: Nc1ccn([C@@H]2O[C@H](COP(=O)(O)OP(=O)(O)OP(=O)(O)O)[C@@H](O)[C@H]2O)c(=O)n1

binding (625 µM GTP, no complex in melting, residual quenching): weak
SMILES: Nc1nc2c(ncn2[C@@H]2O[C@H](COP(=O)(O)OP(=O)(O)OP(=O)(O)O)[C@@H](O)[C@H]2O)c(=O)[nH]1

binding (133 nM probe, up to 625 µM ATP): yes
SMILES: Nc1ncnc2c1ncn2[C@@H]1O[C@H](COP(=O)(O)OP(=O)(O)OP(=O)(O)O)[C@@H](O)[C@H]1O

binding (625 µM UTP, no complex in melting, residual quenching): weak
SMILES: O=c1ccn([C@@H]2O[C@H](COP(=O)(O)OP(=O)(O)OP(=O)(O)O)[C@@H](O)[C@H]2O)c(=O)[nH]1
